Source: PMC8037182, “Solvothermal Synthesis of Multiple Dihydropyrimidinones at a Time as Inhibitors of Eg5” (Molecules, 2021)

Assays:
Eg5 motor protein = biological target: T1, Eg5 motor protein (Homo sapiens, UniProt P52732); assay: Lineweaver–Burk plot analysis of Eg5 ATPase inhibition; format: biochemical
T1 construct: Eg5 motor domain (amino acids 1-368) was cloned into pET22b; His-tag (C); made in house; host or cells: Escherichia coli BL21 (DE3)
T1 sequence (P52732 1-368): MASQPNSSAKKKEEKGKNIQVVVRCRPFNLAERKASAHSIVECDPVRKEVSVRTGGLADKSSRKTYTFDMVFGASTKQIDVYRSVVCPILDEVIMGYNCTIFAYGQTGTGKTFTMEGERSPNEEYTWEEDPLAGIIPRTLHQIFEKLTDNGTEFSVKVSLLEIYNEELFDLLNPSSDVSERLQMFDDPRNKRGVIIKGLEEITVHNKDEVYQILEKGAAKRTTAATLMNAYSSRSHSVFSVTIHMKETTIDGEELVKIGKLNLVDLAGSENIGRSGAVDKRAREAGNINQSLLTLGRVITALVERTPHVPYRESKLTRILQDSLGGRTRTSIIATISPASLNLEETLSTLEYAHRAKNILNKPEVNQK
Method: Assays followed methods similar to that described above for the primary Eg5 motor protein ATPase assay. For either study, compound C9 were tested at 60.50 μM, 30.25 μM, 15.13 μM, 0 μM. ATP concentration was varied from 52 μM to 417 μM. The enzyme concentration tested was 100 nM. All conditions were performed in three independent duplicate experiments. The data were analyzed with GraphPad Prism 6.02 software.
Figure 1 Steady-state inhibition of Eg5 by C9. […] Lines represent a curve fit of the global data set to a mixed-type inhibition model.

Caco-2 cell line = assay: Cytotoxicity MTS assay, Caco-2 cell line; format: cell-based; details: for OD490 Mean / OD490 Well 1 / OD490 Well 2 / OD490 Well 3: Caco-2 cell line
Method in brief: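 Steps: plate 1000 cells per well; incubate 24 h; add compound (final 0.5 to 100 µM) or 0.025% DMSO blank for 24 h; add MTS reagent, hold 2 h at 37 °C in 5% CO2; read A490; fit percent viability against concentration by non-linear regression to obtain IC50.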

In the case of `CCOc1ccccc1C1NC(=S)NC(C)=C1C(=O)Nc1ccc(Cl)cc1` (stereo not shown) [C9], the “Slope of the Lineweaver-Burk plot, Mean” value (Eg5 motor protein; C9 15.13 uM) is reported as 0.649, the “OD630 Value Mean” value (Eg5 motor protein; C9 15.13 uM, ATP 0.052 mM) is reported as 0.142 and the “OD630 Value Mean” value (Eg5 motor protein; C9 15.13 uM, ATP 0.104 mM) is reported as 0.177. The “OD630 Value Mean” value (Eg5 motor protein; C9 15.13 uM, ATP 0.209 mM) was 0.199, the “OD630 Value Mean” value (Eg5 motor protein; C9 15.13 uM, ATP 0.313 mM) was 0.226 and the “OD630 Value Mean” value (Eg5 motor protein; C9 15.13 uM, ATP 0.417 mM) was 0.268. The “Slope of the Lineweaver-Burk plot, Mean” value (Eg5 motor protein; C9 30.25 uM) was 0.942, the “OD630 Value Mean” value (Eg5 motor protein; C9 30.25 uM, ATP 0.052 mM) was 0.126 and the “OD630 Value Mean” value (Eg5 motor protein; C9 30.25 uM, ATP 0.104 mM) was 0.155. The “OD630 Value Mean” value (Eg5 motor protein; C9 30.25 uM, ATP 0.209 mM) was 0.174, the “OD630 Value Mean” value (Eg5 motor protein; C9 30.25 uM, ATP 0.313 mM) was 0.197 and the “OD630 Value Mean” value (Eg5 motor protein; C9 30.25 uM, ATP 0.417 mM) was 0.231. For the same compound, the “Slope of the Lineweaver-Burk plot, Mean” value (Eg5 motor protein; C9 60.50 uM) was 1.374, the “OD630 Value Mean” value (Eg5 motor protein; C9 60.5 uM, ATP 0.052 mM) was 0.114 and the “OD630 Value Mean” value (Eg5 motor protein; C9 60.5 uM, ATP 0.104 mM) was 0.138. For the same compound, the “OD630 Value Mean” value (Eg5 motor protein; C9 60.5 uM, ATP 0.209 mM) was 0.156, the “OD630 Value Mean” value (Eg5 motor protein; C9 60.5 uM, ATP 0.313 mM) was 0.171 and the “OD630 Value Mean” value (Eg5 motor protein; C9 60.5 uM, ATP 0.417 mM) was 0.198. For the same compound, the “type of Eg5 inhibition” value (Eg5 motor protein; Lineweaver–Burk plot, ATP varied 52–417 μM) was “mixed-type Eg5 inhibitor”, the Ki (Eg5 motor protein; secondary plot of Lineweaver–Burk plot, slope versus concentration) was 15.7 µM and the “OD490 Mean” value (Caco-2 cell line; 0.5μM, first assay) was 0.6579. For the same compound, the “OD490 Well 1” value (Caco-2 cell line; 0.5μM, first assay) was 0.6600, the “OD490 Well 2” value (Caco-2 cell line; 0.5μM, first assay) was 0.6452 and the “OD490 Well 3” value (Caco-2 cell line; 0.5μM, first assay) was 0.6685. For the same compound, the “OD490 Mean” value (Caco-2 cell line; 0.5μM, second assay) was 0.6430, the “OD490 Well 1” value (Caco-2 cell line; 0.5μM, second assay) was 0.6499 and the “OD490 Well 2” value (Caco-2 cell line; 0.5μM, second assay) was 0.6217. The “OD490 Well 3” value (Caco-2 cell line; 0.5μM, second assay) was 0.6574, the “OD490 Mean” value (Caco-2 cell line; 0.5μM, third assay) was 0.6809 and the “OD490 Well 1” value (Caco-2 cell line; 0.5μM, third assay) was 0.6676. For the same compound, the “OD490 Well 2” value (Caco-2 cell line; 0.5μM, third assay) was 0.6999, the “OD490 Well 3” value (Caco-2 cell line; 0.5μM, third assay) was 0.6752 and the “OD490 Mean” value (Caco-2 cell line; 1μM, first assay) was 0.6557. The “OD490 Well 1” value (Caco-2 cell line; 1μM, first assay) was 0.6594, the “OD490 Well 2” value (Caco-2 cell line; 1μM, first assay) was 0.6683 and the “OD490 Well 3” value (Caco-2 cell line; 1μM, first assay) was 0.6393. For the same compound, the “OD490 Mean” value (Caco-2 cell line; 1μM, second assay) was 0.6328, the “OD490 Well 1” value (Caco-2 cell line; 1μM, second assay) was 0.6398 and the “OD490 Well 2” value (Caco-2 cell line; 1μM, second assay) was 0.6387. The “OD490 Well 3” value (Caco-2 cell line; 1μM, second assay) was 0.6200, the “OD490 Mean” value (Caco-2 cell line; 1μM, third assay) was 0.6578 and the “OD490 Well 1” value (Caco-2 cell line; 1μM, third assay) was 0.6898. The “OD490 Well 2” value (Caco-2 cell line; 1μM, third assay) was 0.6914, the “OD490 Well 3” value (Caco-2 cell line; 1μM, third assay) was 0.5921 and the “OD490 Mean” value (Caco-2 cell line; 10μM, first assay) was 0.6390. The “OD490 Well 1” value (Caco-2 cell line; 10μM, first assay) was 0.5664, the “OD490 Well 2” value (Caco-2 cell line; 10μM, first assay) was 0.6539 and the “OD490 Well 3” value (Caco-2 cell line; 10μM, first assay) was 0.6968. For the same compound, the “OD490 Mean” value (Caco-2 cell line; 10μM, second assay) was 0.5939, the “OD490 Well 1” value (Caco-2 cell line; 10μM, second assay) was 0.5553 and the “OD490 Well 2” value (Caco-2 cell line; 10μM, second assay) was 0.5431. For the same compound, the “OD490 Well 3” value (Caco-2 cell line; 10μM, second assay) was 0.6832, the “OD490 Mean” value (Caco-2 cell line; 10μM, third assay) was 0.6521 and the “OD490 Well 1” value (Caco-2 cell line; 10μM, third assay) was 0.6349. The “OD490 Well 2” value (Caco-2 cell line; 10μM, third assay) was 0.6214, the “OD490 Well 3” value (Caco-2 cell line; 10μM, third assay) was 0.7001 and the “OD490 Mean” value (Caco-2 cell line; 25μM, first assay) was 0.5635. For the same compound, the “OD490 Well 1” value (Caco-2 cell line; 25μM, first assay) was 0.5780, the “OD490 Well 2” value (Caco-2 cell line; 25μM, first assay) was 0.5488 and the “OD490 Well 3” value (Caco-2 cell line; 25μM, first assay) was 0.5637. For the same compound, the “OD490 Mean” value (Caco-2 cell line; 25μM, second assay) was 0.5347, the “OD490 Well 1” value (Caco-2 cell line; 25μM, second assay) was 0.5232 and the “OD490 Well 2” value (Caco-2 cell line; 25μM, second assay) was 0.5214. For the same compound, the “OD490 Well 3” value (Caco-2 cell line; 25μM, second assay) was 0.5594, the “OD490 Mean” value (Caco-2 cell line; 25μM, third assay) was 0.6041 and the “OD490 Well 1” value (Caco-2 cell line; 25μM, third assay) was 0.6789. For the same compound, the “OD490 Well 2” value (Caco-2 cell line; 25μM, third assay) was 0.5214, the “OD490 Well 3” value (Caco-2 cell line; 25μM, third assay) was 0.6121 and the “OD490 Mean” value (Caco-2 cell line; 50μM, first assay) was 0.4407. The “OD490 Well 1” value (Caco-2 cell line; 50μM, first assay) was 0.4378, the “OD490 Well 2” value (Caco-2 cell line; 50μM, first assay) was 0.4511 and the “OD490 Well 3” value (Caco-2 cell line; 50μM, first assay) was 0.4331. For the same compound, the “OD490 Mean” value (Caco-2 cell line; 50μM, second assay) was 0.4117, the “OD490 Well 1” value (Caco-2 cell line; 50μM, second assay) was 0.3953 and the “OD490 Well 2” value (Caco-2 cell line; 50μM, second assay) was 0.4678. The “OD490 Well 3” value (Caco-2 cell line; 50μM, second assay) was 0.3721, the “OD490 Mean” value (Caco-2 cell line; 50μM, third assay) was 0.4510 and the “OD490 Well 1” value (Caco-2 cell line; 50μM, third assay) was 0.4963. The “OD490 Well 2” value (Caco-2 cell line; 50μM, third assay) was 0.3954, the “OD490 Well 3” value (Caco-2 cell line; 50μM, third assay) was 0.4613 and the “OD490 Mean” value (Caco-2 cell line; 100μM, first assay) was 0.3208. For the same compound, the “OD490 Well 1” value (Caco-2 cell line; 100μM, first assay) was 0.2950, the “OD490 Well 2” value (Caco-2 cell line; 100μM, first assay) was 0.3313 and the “OD490 Well 3” value (Caco-2 cell line; 100μM, first assay) was 0.3360. For the same compound, the “OD490 Mean” value (Caco-2 cell line; 100μM, second assay) was 0.2995, the “OD490 Well 1” value (Caco-2 cell line; 100μM, second assay) was 0.2898 and the “OD490 Well 2” value (Caco-2 cell line; 100μM, second assay) was 0.3121. For the same compound, the “OD490 Well 3” value (Caco-2 cell line; 100μM, second assay) was 0.2965, the “OD490 Mean” value (Caco-2 cell line; 100μM, third assay) was 0.3309 and the “OD490 Well 1” value (Caco-2 cell line; 100μM, third assay) was 0.3633. The “OD490 Well 2” value (Caco-2 cell line; 100μM, third assay) was 0.2374, the “OD490 Well 3” value (Caco-2 cell line; 100μM, third assay) was 0.3921 and the IC50 (Caco-2 cell line; Homo sapiens, Caco-2, MTS assay, 24 h exposure) was 65.8 µM. It also gave a melting point of 253 to 257 °C.
